# Data from patent publication US20120302636A1, “METHOD OF TREATING A DISORDER ASSOCIATED WITH MTP” (priority 2009, published 2012).
# How the values were obtained:
# Type in all cases: in vivo, human
# [1] = tested on: serum lipid levels; experiment: Example 1: serum lipid levels
# Procedure: In this study, lipids related to lipoprotein metabolism were determined as serum lipid test items. In the active group, postprandial elevations for RLP-C, TG, LDL-TG, HDL-TG, CM-TG, and ApoB48 (reference data) were inhibited, while LDL-C, HDL-C, TC, and ApoB values decreased. The manifestation of those effects required 3 to 7 days. […] This effect is attributable to the inhibition of diet-derived lipid absorption based on the MTP inhibitory activity of the compound of formula (I) in the small intestine.
# [2] = Example 3: pharmacokinetics; conditions: all dose groups
# [3] = Example 4: 8-week study in hyperlipidemia, safety
# Procedure: One hundred five Japanese patients with hyperlipidemia (LDL-C between 140 and 220 mg/dL; TG≦400 mg/dL) participated in the study. […] For the efficacy analysis, 95 subjects were observed (0.5 mg BID: 25 subjects, 1 mg BID: 24 subjects, 2 mg BID: 22 subjects, 4 mg BID: 24 subjects).
# [4] = Example 5: pharmacokinetics; conditions: subjects other than two
# Procedure: Fifty-two Japanese patients with hyperlipidemia (LDL-C between 140 and 220 mg/dL; TG≦400 mg/dL) participated in the study. […] One group received a fixed dose of 2 mg per tablet through the entire study. The other group received escalating doses of 0.5 mg (weeks 1-4), 1 mg (weeks 5-8), and 2 mg (weeks 9-12). For the efficacy analysis, 50 subjects were observed (25 in the fixed-dose group and 25 in the dose escalation group).
# The objective of this study was preliminary evaluation of the efficacy (based on serum lipid levels), safety, and pharmacokinetics of the compound of formula (I) administered orally twice daily after breakfast and supper for 12 weeks as a fixed dose (4 mg/day) or escalating dose (1 mg/day, 2 mg/day and 4 mg/day) regimen in patients with hyperlipidemia.
# [5] = tested on: gut hormone (GLP-1 active, PYY total, GIP total) levels; experiment: Example 9: gut hormone levels in obese male subjects; conditions: for increase in GLP-1 active compared with placebo / increase in PYY total compared with placebo: 4 hours after dinner
# Procedure: (§1) The study enrolled 16 obese male subjects (18-65 years of age (inclusive), with a body mass index (BMI) >30.0 kg/m^2 and <40.0 kg/m^2) who participated in two treatment periods. During Period 1, 8 subjects were randomized to receive 3.5 mg of the compound of formula (I), and 8 subjects were randomized to receive placebo. The compound of formula (I) or placebo was administered twice daily (BID), 30 minutes after the start of breakfast and dinner, for 10 days. All subjects were discharged from the clinic at the end of Period 1 for a 9±2 day discharge period. Subjects then returned for treatment during Period 2, in which (i) the group previously receiving the compound of formula (I) now received placebo, and (ii) the group previously receiving placebo now received the compound of formula (I), in accordance with the protocol described above.
# The primary objective of this study was to examine the change in gut hormone levels. The co-primary endpoints were trough gut hormone (glucagon-like peptide 1 (GLP-1) active, peptide tyrosine tyrosine (PYY) total, and gastric inhibitory polypeptide (GIP) total) levels on Day 10 in each treatment period and the trough gut hormone profile throughout the study. On Day 10 of each treatment period, statistically significant mean increases in GLP-1 active (60%) and PYY total (43%) were observed during administration of the compound of formula (I) compared with placebo, whereas no change in GIP total relative to placebo was found.
# [6] = Example 9: caloric/food intake and appetite; conditions: 3.5 mg BID, Day 10/11
# Procedure: as §1
# A secondary objective of this study was to examine the effects on caloric/food intake and appetite. Therefore, other secondary PD endpoints in this study included caloric intake and meal weight consumed on Day 10 of each period, as well as visual analog scale (VAS) assessments of hunger, prospective consumption, and fullness on Day 10/11 of each period. VAS assessments of thirst and nausea on Day 10/11 of each period were part of the exploratory analysis.
# [7] = Example 9: safety and tolerability
# Procedure: as §1
smiles,measurement,setting,value
"CCOC(=O)C(COC(=O)Cc1ccc(NC(=O)c2ccccc2-c2ccc(C(F)(F)F)cc2)c(C(=O)N(C)C)c1)(C(=O)OCC)c1ccccc1 [compound of formula (I), diethyl 2-((2-(3-(dimethylcarbamoyl)-4-(4′-(trifiuoromethyl)biphenyl-2-ylcarboxamido)phenyl)acetoxy)methyl)-2-phenyl malonate]","LDL-C, HDL-C, TC, and ApoB values",[1]; active group,decreased
same,"postprandial elevations for RLP-C, TG, LDL-TG, HDL-TG, CM-TG, and ApoB48",[1]; active group,inhibited
same,"increase in postprandial values for RLP-C, TG, LDL-TG, HDL-TG, and CM-TG",[1]; after the first dose on Day 1,inhibited an increase
same,plasma concentrations of the compound of formula (I),[2],below the limit of quantization
same,incidence of moderate diarrhea,[3]; 0.5 mg BID,8.0%
same,number of adverse events,[3]; 0.5 mg BID,20
same,number of moderate diarrhea events,[3]; 0.5 mg BID,2
same,subjects with adverse events (incidence),[3]; 0.5 mg BID,44.0%
same,incidence of diarrhea,[3]; 1 mg BID,15.9%
same,incidence of moderate diarrhea,[3]; 1 mg BID,0.0%
same,number of adverse events,[3]; 1 mg BID,60
same,number of diarrhea events,[3]; 1 mg BID,6
same,number of moderate diarrhea events,[3]; 1 mg BID,0
same,subjects with adverse events (incidence),[3]; 1 mg BID,75.0%
same,incidence of diarrhea,[3]; 2 mg BID,24.0%
same,incidence of moderate diarrhea,[3]; 2 mg BID,12.0%
same,number of adverse events,[3]; 2 mg BID,51
same,number of diarrhea events,[3]; 2 mg BID,12
same,number of moderate diarrhea events,[3]; 2 mg BID,4
same,subjects with adverse events (incidence),[3]; 2 mg BID,80.0%
same,incidence of diarrhea,[3]; 4 mg BID,40.7%
same,incidence of moderate diarrhea,[3]; 4 mg BID,29.6%
same,number of adverse events,[3]; 4 mg BID,82
same,number of diarrhea events,[3]; 4 mg BID,21
same,number of moderate diarrhea events,[3]; 4 mg BID,13
same,subjects with adverse events (incidence),[3]; 4 mg BID,85.2%
same,death or serious adverse events,"[3]; 0.5-4 mg BID capsules, 8 weeks",neither death nor other serious adverse events occurred
same,events of gastrointestinal disorders,[3]; 105 subjects,117
same,events of infections and infestations,[3]; 105 subjects,11
same,events of investigations,[3]; 105 subjects,49
same,events of metabolism and nutrition disorders,[3]; 105 subjects,7
same,"events of musculoskeletal, and connective tissue disorders",[3]; 105 subjects,7
same,incidence of gastrointestinal disorders (SOC),[3]; 105 subjects,47.6%
same,incidence of infections and infestations (SOC),[3]; 105 subjects,9.5%
same,incidence of investigations (SOC),[3]; 105 subjects,31.4%
same,incidence of metabolism and nutrition disorders (SOC),[3]; 105 subjects,6.7%
same,incidence of moderate adverse events,[3]; 105 subjects,18.1%
same,"incidence of musculoskeletal, and connective tissue disorders (SOC)",[3]; 105 subjects,6.7%
same,"laboratory abnormality ALT, subjects",[3]; 105 subjects,5.7%
same,"laboratory abnormality CPK, subjects",[3]; 105 subjects,6.7%
same,"laboratory abnormality CRP, subjects",[3]; 105 subjects,3.8%
same,"laboratory abnormality IP, subjects",[3]; 105 subjects,2.9%
same,"laboratory abnormality γ-GTP, subjects",[3]; 105 subjects,3.8%
same,number of moderate adverse events,[3]; 105 subjects,Twenty-six
same,number of adverse events,[3]; all 105 subjects,213
same,subjects with adverse events (incidence),[3]; all 105 subjects,71.45%
same,"fat-soluble vitamins (vitamin A, 25-OH vitamin D, and vitamin E)",[3]; in vivo,no clinically significant changes
same,subjects withdrawn from the study treatment because of adverse events,[3]; of 105 subjects,four
same,Cmin of the compound of formula (I),[4],below the lower limit of quantization
same,mean increase in trough GLP-1 active compared with placebo,"[5]; 3.5 mg BID, Day 10",60%
same,mean increase in trough PYY total compared with placebo,"[5]; 3.5 mg BID, Day 10",43%
same,trough GIP total relative to placebo,"[5]; 3.5 mg BID, Day 10",no change
same,increase in GLP-1 active compared with placebo,[5]; Day 2,38%
same,increase in PYY total compared with placebo,[5]; Day 2,44%
same,increase in GLP-1 active compared with placebo,[5]; Day 9,71%
same,increase in PYY total compared with placebo,[5]; Day 9,42%
same,GIP total relative to placebo,"[5]; 4 hours post-dinner, Day 2 and Day 9",No statistically significant differences
same,gut hormone AUC profiles around breakfast,"[5]; Day 2, -0.5 to 3.5 hours relative to dosing",no significant changes
same,GIP total profile,[5]; Day 2 or Day 9,No significant changes
same,average increase in GLP-1 active around breakfast,[5]; Day 9,38%
same,average increase in PYY total around breakfast,[5]; Day 9,51%
same,decrease in AUC for GIP total compared with placebo,"[5]; Day 9, around breakfast",17%
same,increase in AUC for GLP-1 active compared with placebo,"[5]; Day 9, around breakfast",31%
same,increase in AUC for PYY total compared with placebo,"[5]; Day 9, around breakfast",39%
same,average increase in trough PYY total,[5]; days 2 through 11,63%
same,average increase in trough GIP total,"[5]; days 3, 5 and 11",24%
same,average increase in trough GLP-1 active,[5]; days 3 through 11,45%
same,"caloric intake, meal weight consumed, VAS of hunger, prospective consumption, fullness, thirst, nausea",[6],no statistically significant treatment differences
same,deaths or serious adverse events,"[7]; 3.5 mg BID, 10 days",no deaths or serious adverse events
same,subjects with at least one treatment-emergent adverse event,"[7]; 3.5 mg BID, 10 days",53.3%
same,safety and tolerability,"[7]; 3.5 mg BID, 10 days, fed conditions",safe and well-tolerated
same,"hematology, biochemistry, urinalysis, vital sign (including weight), ECG changes from baseline",[7]; in vivo,No clinically meaningful mean changes
